Biological target: T1, IL-17A/A (Homo sapiens, UniProt Q16552)
T1 construct: purchased Genscript Z03228
T1 sequence (Q16552 24-155): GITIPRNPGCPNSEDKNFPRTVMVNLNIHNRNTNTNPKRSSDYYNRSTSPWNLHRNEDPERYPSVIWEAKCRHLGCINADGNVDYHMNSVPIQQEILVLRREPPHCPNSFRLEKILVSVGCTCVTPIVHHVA
Experiment: IL-17A/A HEK-Blue Cell Assay
Type: cell-based
Details: HEK-Blue IL-17A reporter cell line, SEAP readout at A630, 20 hours incubation with IL-17A/A, top concentration 10 uM, 1 uM or 0.3 uM; for IC50: read-out: IL-17A/A inhibition (pIC50) (converted)

Row | Structure (SMILES) | IC50 [nM] | IL-17A/A inhibition (pIC50)
1 | CCC(=O)N[C@@H](C(=O)N1CCN(C)C[C@@H]1C)[C@@H](C)c1ccc(NC(=O)[C@@H](NC(=O)c2ccnn2CC)[C@H]2CC[C@H](C)CC2)c(F)c1 [Compound 429] | < 10 | –
2 | CCC(=O)N[C@@H](C(=O)N1CCN(C)C[C@H]1C)[C@@H](C)c1ccc(NC(=O)[C@@H](NC(=O)c2ccnn2CC)[C@H]2CC[C@H](C)CC2)c(F)c1 [Compound 430] | < 10 | –
3 | CCC(=O)N[C@@H](C(=O)N1CCN(C)CC1(C)C)[C@@H](C)c1ccc(NC(=O)[C@@H](NC(=O)c2ccnn2CC)[C@H]2CC[C@H](C)CC2)c(F)c1 [Compound 431] | < 10 | –
4 | CCn1nccc1C(=O)N[C@H](C(=O)Nc1ccc([C@H](C)[C@@H](NC(=O)C(C)C2CC2)C(=O)N2CCN(C)C(C)(C)C2)cc1F)[C@H]1CC[C@H](C)CC1 (stereo partly shown) [Compound 432] | < 10 | –
5 | CCn1nccc1C(=O)N[C@H](C(=O)Nc1ccc([C@H](C)[C@@H](NC(=O)C(C)C2CC2)C(=O)N2CCN(C)[C@@H](C)C2)cc1F)[C@H]1CC[C@H](C)CC1 (stereo partly shown) [Compound 433] | < 10 | –
6 | CCn1nccc1C(=O)N[C@H](C(=O)Nc1ccc([C@H](C)[C@@H](NC(=O)C(C)C2CC2)C(=O)N2CCN(C)[C@H](C)C2)cc1F)[C@H]1CC[C@H](C)CC1 (stereo partly shown) [Compound 434] | < 10 | –
7 | CCC(=O)N[C@@H](C(=O)N1CCN(C)[C@@H](C)C1)[C@@H](C)c1ccc(NC(=O)[C@@H](NC(=O)c2ccnn2CC)[C@H]2CC[C@H](C)CC2)c(F)c1 [Compound 435] | < 10 | –
8 | CCC(=O)N[C@@H](C(=O)N1CCN(C)[C@H](C)C1)[C@@H](C)c1ccc(NC(=O)[C@@H](NC(=O)c2ccnn2CC)[C@H]2CC[C@H](C)CC2)c(F)c1 [Compound 436] | < 10 | –
9 | CCC(=O)N[C@@H](C(=O)N1CCC(C)(OC)CC1)[C@@H](C)c1ccc(NC(=O)[C@@H](NC(=O)c2ccnn2CC)[C@H]2CC[C@H](C)CC2)c(F)c1 [Compound 437] | < 10 | –
10 | CCn1nccc1C(=O)N[C@H](C(=O)Nc1ccc([C@H](C)[C@@H](NC(=O)c2cnns2)C(=O)N2CCNC3(CC3)C2)cc1F)[C@H]1CC[C@H](C)CC1 [Compound 438] | 10 to 100 | –
11 | CCn1nccc1C(=O)N[C@H](C(=O)Nc1ccc([C@H](C)[C@@H](NC(=O)c2cnns2)C(=O)N2CCN(C)C3(CC3)C2)cc1F)[C@H]1CC[C@H](C)CC1 [Compound 439] | 10 to 100 | –
12 | CCn1nccc1C(=O)N[C@H](C(=O)Nc1ccc([C@H](C)[C@@H](NC(=O)c2cnns2)C(=O)N2CCC(C)(O)CC2)cc1F)[C@H]1CC[C@H](C)CC1 [Compound 440] | < 10 | –
13 | CCn1nccc1C(=O)N[C@H](C(=O)Nc1ccc([C@H](C)[C@@H](NC(=O)c2cnns2)C(=O)N2CCN(Cc3ccccc3)CC2)cc1F)[C@H]1CC[C@H](C)CC1 [Compound 441] | < 10 | –
14 | CCn1nccc1C(=O)N[C@H](C(=O)Nc1ccc([C@H](C)[C@@H](NC(=O)c2conc2C2CCNCC2)C(=O)N2CCC(C)(O)CC2)cc1F)[C@H]1CC[C@H](C)CC1 [Compound 442] | 10 to 100 | –
15 | CCn1nccc1C(=O)N[C@H](C(=O)Nc1ccc([C@H](C)[C@@H](NC(=O)CC2CC2)C(=O)N2CCN(Cc3ccccc3)CC2)cc1F)[C@H]1CC[C@H](C)CC1 [Compound 443] | < 10 | –
16 | CCC(=O)N[C@@H](C(=O)N1CCNC2(CC2)C1)[C@@H](C)c1ccc(NC(=O)[C@@H](NC(=O)c2nonc2CC)[C@H]2CC[C@H](C)CC2)c(F)c1 [Compound 444] | 10 to 100 | –
17 | CCC(=O)N[C@@H](C(=O)N1CCN(CCO)CC1)[C@@H](C)c1ccc(NC(=O)[C@@H](NC(=O)c2nonc2CC)[C@H]2CC[C@H](C)CC2)c(F)c1 [Compound 445] | 10 to 100 | –

Row | Structure (SMILES) | IC50 [nM] | IL-17A/A inhibition (pIC50)
18 | CCC(=O)N[C@@H](C(=O)N1CC(C(C)(C)O)C1)[C@@H](C)c1ccc(NC(=O)[C@@H](NC(=O)c2nonc2CC)[C@H]2CC[C@H](C)CC2)c(F)c1 [Compound 446] | < 10 | –
19 | CCC(=O)N[C@@H](C(=O)N1C[C@@H](C)N[C@@H](C)C1)[C@@H](C)c1ccc(NC(=O)[C@@H](NC(=O)c2nonc2CC)[C@H]2CC[C@H](C)CC2)c(F)c1 [Compound 447] | 10 to 100 | –
20 | CCC(=O)N[C@@H](C(=O)N1C[C@H](C)N(C(=O)CC)[C@@H](C)C1)[C@@H](C)c1ccc(NC(=O)[C@@H](NC(=O)c2nonc2CC)[C@H]2CC[C@H](C)CC2)c(F)c1 [Compound 448] | < 10 | –
21 | CCC(=O)N[C@@H](C(=O)N1C[C@H](C)N(C(C)C)[C@@H](C)C1)[C@@H](C)c1ccc(NC(=O)[C@@H](NC(=O)c2nonc2CC)[C@H]2CC[C@H](C)CC2)c(F)c1 [Compound 449] | – | A (compounds having a pIC50 of greater than or equal 8 as A)
22 | CCC(=O)N[C@@H](C(=O)N1CCN(Cc2ccccn2)CC1)[C@@H](C)c1ccc(NC(=O)[C@@H](NC(=O)c2nonc2CC)[C@H]2CC[C@H](C)CC2)c(F)c1 [Compound 450] | < 10 | –
23 | CCC(=O)N[C@@H](C(=O)N1C[C@@H](C)N(C)[C@H](C)C1)[C@@H](C)c1ccc(NC(=O)[C@@H](NC(=O)c2nonc2CC)[C@H]2CC[C@H](C)CC2)c(F)c1 [Compound 451] | < 10 | –
24 | CCC(=O)N[C@@H](C(=O)N1C[C@@H](C)N(C)[C@@H](C)C1)[C@@H](C)c1ccc(NC(=O)[C@@H](NC(=O)c2nonc2CC)[C@H]2CC[C@H](C)CC2)c(F)c1 [Compound 452] | < 10 | –
25 | CCC(=O)N[C@@H](C(=O)N1CCN[C@H](C)C1)[C@@H](C)c1ccc(NC(=O)[C@@H](NC(=O)c2nonc2CC)[C@H]2CC[C@H](C)CC2)c(F)c1 [Compound 454] | 100 to 10000 | –
26 | CCC(=O)N[C@@H](C(=O)N(C)Cc1cncn1C)[C@@H](C)c1ccc(NC(=O)[C@@H](NC(=O)c2nonc2CC)[C@H]2CC[C@H](C)CC2)c(F)c1 [Compound 455] | 100 to 10000 | –
27 | CCC(=O)N[C@@H](C(=O)N1CCN(C)C[C@@H]1C)[C@@H](C)c1ccc(NC(=O)[C@@H](NC(=O)c2nonc2CC)[C@H]2CC[C@H](C)CC2)c(F)c1 [Compound 456] | < 10 | –
28 | CCC(=O)N[C@@H](C(=O)N1CCN(C)C[C@H]1C)[C@@H](C)c1ccc(NC(=O)[C@@H](NC(=O)c2nonc2CC)[C@H]2CC[C@H](C)CC2)c(F)c1 [Compound 457] | < 10 | –
29 | CCC(=O)N[C@@H](C(=O)N1CCN(C)CC1(C)C)[C@@H](C)c1ccc(NC(=O)[C@@H](NC(=O)c2nonc2CC)[C@H]2CC[C@H](C)CC2)c(F)c1 [Compound 458] | < 10 | –
30 | CCC(=O)N[C@@H](C(=O)N1CCN(C)[C@@H](C)C1)[C@@H](C)c1ccc(NC(=O)[C@@H](NC(=O)c2nonc2CC)[C@H]2CC[C@H](C)CC2)c(F)c1 [Compound 460] | < 10 | –
31 | CCC(=O)N[C@H](Cc1ccc(NC(=O)[C@@H](NC(=O)c2nonc2CC)[C@H]2CC[C@H](C)CC2)c(F)c1)C(=O)N1CCN(C)[C@@H](C)C1 [Compound 462] | – | A (compounds having a pIC50 of greater than or equal 8 as A)
32 | CCC(=O)N[C@@H](C(=O)N1CCN(C)C(C)(C)C1)[C@@H](C)c1ccc(NC(=O)[C@@H](NC(=O)c2nonc2CC)[C@H]2CC[C@H](C)CC2)c(F)c1 [Compound 464] | < 10 | –
33 | CCC(=O)N[C@@H](C(=O)N1CCN(CC)C(C)(C)C1)[C@@H](C)c1ccc(NC(=O)[C@@H](NC(=O)c2nonc2CC)[C@H]2CC[C@H](C)CC2)c(F)c1 [Compound 466] | – | A (compounds having a pIC50 of greater than or equal 8 as A)
34 | CCC(=O)N[C@@H](C(=O)N1CCN(CC)[C@@H](C)C1)[C@@H](C)c1ccc(NC(=O)[C@@H](NC(=O)c2nonc2CC)[C@H]2CC[C@H](C)CC2)c(F)c1 [Compound 467] | < 10 | –

From patent US12421212B2, “Substituted benzenecarboxamides as IL-17A modulators” (DiCE Alpha, Inc., priority 2019, dated 2025)
